Assay results: ChEMBL document CHEMBL1201862, “PubChem BioAssay data set” (2004)
Active and inactive are the calls of the source.

Key:
Kallikrein-7 = Kallikrein-7 (Homo sapiens, UniProt P49862); experiment: Fluorescence Intensity-based biochemical primary high throughput dose response assay to identify activators of kallikrein-7 (K7) zymogen.
Paired box protein Pax-8 = Paired box protein Pax-8 (Homo sapiens, UniProt Q06710); experiment: PAX8 transcriptional activity inhibition in RMG-I – RMG-I cells, luciferase, cherry-pick, dose response (AID 687027); assay type: functional, cell-based;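 also: luciferase reporter driven by Pax8 target thyroperoxidase promoter measured by SteadyGlo luminescence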
[1] = A2780 cell killing – plate reader, dry powder samples, cytotoxicity control, dose response (AID 743046); assay type: functional, cell-based
[2] = OVCAR-3 cell viability loss – plate reader, dry powder samples, PAX8 inhibitor project, dose response (AID 743044); assay type: functional, cell-based
[3] = IGROV1 cell killing – plate reader, dry powder samples, PAX8 inhibitor project, dose response (AID 743043); assay type: functional, cell-based; conditions: IGROV-1
[4] = OVCAR8 cell viability loss – plate reader, dry powder samples, PAX8 project, dose response (AID 743197); assay type: functional, cell-based; conditions: OVCAR-8
[5] = antimalarial activity against Dd2 parasites – SYBR Green fluorescence, erythrocytes, dry powder, set 2, dose response (AID 1159574); assay type: functional, cell-based
[6] = target: Muscarinic acetylcholine receptor M5 (Homo sapiens, UniProt P08912); experiment: potentiation of ACh response at human M5 – cell-based, concentration-response curve, dose response (AID 651878); assay type: functional
[7] = reduced cellular PGC1a acetyl-lysine signal – cell-based, cherry-picked samples, dose response (AID 720514); assay type: functional;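 also: potency may reflect raised or lowered acetylation signal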
[8] = P. falciparum Dd2 growth inhibitors, dose response, SYBR Green, cherry-picked samples (AID 1159567); assay type: functional, cell-based
[9] = toxicity to human hepatoma HepG2 cells – cell-based, cherry-picked samples, cytotoxicity control, dose response (AID 1159577); assay type: functional
[10] = Trypanosoma cruzi growth suppression in host cells – NIH3T3 host cells, beta-gal luminescence, confirmation (AID 2044); assay type: functional, cell-based;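 also: intracellular parasites grown in NIH/3T3 mouse fibroblasts as host cells; luminescent beta-galactosidase reporter signal from transgenic T. cruzi replicating inside host cells; inhibitors lower the luminescence signal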
[11] = NIH3T3 cell viability loss – ATP luminescence, mouse fibroblasts, counter-screen, dose response (AID 2010); assay type: functional, cell-based;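 also: cells exposed to compound for about 90 hours before reading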
Caspase-6 = Caspase-6 (Homo sapiens, UniProt P55212); experiment: inhibition of CASP6 peptide cleavage – biochemical, VEID-R110 fluorescence, cherry-pick, dose response (AID 720632)
[12] = target: G-protein coupled receptor 183 (Homo sapiens, UniProt P32249); experiment: SAR confirmation of small molecule antagonists of the EBI2 receptor via a luminescent beta-arrestin assa.; assay type: functional
BJ [13] = experiment: BJ-TERT fibroblast viability loss – cell-based, RAS-independent, luminescence, dose response (AID 1933); assay type: functional; conditions: Homo sapiens
BJ [14] = experiment: cells; assay type: functional, cell-based; conditions: Homo sapiens
BJ [15] = experiment: BJ-TERT-LT-ST fibroblast viability loss – cell-based, RAS-independent, luminescence, dose response (AID 1935); assay type: functional; conditions: Homo sapiens;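 also: BJ fibroblasts immortalized with TERT plus LT and ST oncogenes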
[16] = DRD fibroblast viability loss – cell-based, non-viral oncogenic, luminescence, dose response (AID 1934); assay type: functional; conditions: Homo sapiens
[17] = target: Glucose-6-phosphate 1-dehydrogenase (Homo sapiens, UniProt P11413); experiment: inhibition of Homo sapiens G6PD, dose series – biochemical, fluorescence, selectivity assay for P. falciparum G6PD inhibitor project, dose response (AID 504792); assay type: functional
Nonstructural protein 1 = Nonstructural protein 1 (Influenza A virus, UniProt Q194T2); assay type: functional, Influenza A virus (A/California/07/2009(H1N1))
[18] = target: T1, Probable nicotinate-nucleotide adenylyltransferase (Staphylococcus aureus (strain N315), UniProt P65502); assay type: functional, Staphylococcus aureus subsp. aureus N315;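 as to IC50 Mean: confirmatory dose-response retesting of NadD inhibitor hits first found in an ultra-high-throughput screen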
[19] = target: T1, Probable nicotinate-nucleotide adenylyltransferase; assay type: functional, Staphylococcus aureus subsp. aureus N315; conditions: read-out: IC50_Mean
Protein Tat = Protein Tat (Human immunodeficiency virus type 1 group M subtype B (isolate HXB2)(HIV-1), UniProt P04608); assay type: functional;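 also: tat binding to TAR RNA read out by fluorescence polarization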
[20] = viability loss in THP-1 monocytes – THP-1 cells, cytotoxicity control for Vif-APOBEC3G degradation inhibitor project, dose response (AID 1117359); assay type: functional; conditions: THP-1
[21] = target: Glutathione-S-transferase (Schistosoma japonicum, UniProt Q26513); experiment: GST-antibody interaction or FRET quenching – biochemical, TR-FRET, artefact control for Vif-APOBEC3G degradation inhibitor project, dose response (AID 1117362); assay type: functional
[22] = rise of 2N DNA cells, HeLa – IC50, dose response (AID 1117349); assay type: functional, cell-based
[23] = rise of 4N DNA cells, HeLa – IC50, dose response (AID 1117351); assay type: functional, cell-based

T1 sequence (P65502 whole entry): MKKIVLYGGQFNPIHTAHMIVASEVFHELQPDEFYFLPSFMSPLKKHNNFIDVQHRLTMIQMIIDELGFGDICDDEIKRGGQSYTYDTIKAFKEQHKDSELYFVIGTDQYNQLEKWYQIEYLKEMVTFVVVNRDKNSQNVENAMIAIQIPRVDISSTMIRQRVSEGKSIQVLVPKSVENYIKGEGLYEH
Paired box protein Pax-8, sequence (Q06710 whole entry): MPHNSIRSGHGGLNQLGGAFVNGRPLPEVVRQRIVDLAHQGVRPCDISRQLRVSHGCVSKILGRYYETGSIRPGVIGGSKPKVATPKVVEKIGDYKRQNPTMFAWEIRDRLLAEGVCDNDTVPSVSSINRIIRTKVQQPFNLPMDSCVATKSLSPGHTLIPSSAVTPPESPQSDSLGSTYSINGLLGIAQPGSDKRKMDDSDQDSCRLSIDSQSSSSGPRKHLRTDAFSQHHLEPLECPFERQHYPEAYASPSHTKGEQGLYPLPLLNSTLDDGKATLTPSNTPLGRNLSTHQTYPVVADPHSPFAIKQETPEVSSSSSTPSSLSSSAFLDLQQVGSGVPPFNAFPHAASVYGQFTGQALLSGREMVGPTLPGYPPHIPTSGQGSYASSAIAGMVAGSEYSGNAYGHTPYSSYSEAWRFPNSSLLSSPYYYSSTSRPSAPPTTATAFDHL
Glutathione-S-transferase, sequence (Q26513 whole entry): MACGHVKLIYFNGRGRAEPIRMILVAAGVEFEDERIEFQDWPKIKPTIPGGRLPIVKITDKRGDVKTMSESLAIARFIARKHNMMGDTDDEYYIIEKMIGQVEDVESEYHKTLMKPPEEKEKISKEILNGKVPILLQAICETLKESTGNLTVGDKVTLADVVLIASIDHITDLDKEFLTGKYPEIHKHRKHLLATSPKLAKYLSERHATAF
Nonstructural protein 1, sequence (Q194T2 whole entry): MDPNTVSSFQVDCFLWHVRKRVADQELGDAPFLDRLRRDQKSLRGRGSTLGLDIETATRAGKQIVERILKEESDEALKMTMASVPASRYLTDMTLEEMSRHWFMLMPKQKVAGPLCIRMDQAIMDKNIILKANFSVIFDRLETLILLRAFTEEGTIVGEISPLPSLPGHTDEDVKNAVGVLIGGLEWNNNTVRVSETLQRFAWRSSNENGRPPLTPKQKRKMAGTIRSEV
Muscarinic acetylcholine receptor M5, sequence (P08912 whole entry): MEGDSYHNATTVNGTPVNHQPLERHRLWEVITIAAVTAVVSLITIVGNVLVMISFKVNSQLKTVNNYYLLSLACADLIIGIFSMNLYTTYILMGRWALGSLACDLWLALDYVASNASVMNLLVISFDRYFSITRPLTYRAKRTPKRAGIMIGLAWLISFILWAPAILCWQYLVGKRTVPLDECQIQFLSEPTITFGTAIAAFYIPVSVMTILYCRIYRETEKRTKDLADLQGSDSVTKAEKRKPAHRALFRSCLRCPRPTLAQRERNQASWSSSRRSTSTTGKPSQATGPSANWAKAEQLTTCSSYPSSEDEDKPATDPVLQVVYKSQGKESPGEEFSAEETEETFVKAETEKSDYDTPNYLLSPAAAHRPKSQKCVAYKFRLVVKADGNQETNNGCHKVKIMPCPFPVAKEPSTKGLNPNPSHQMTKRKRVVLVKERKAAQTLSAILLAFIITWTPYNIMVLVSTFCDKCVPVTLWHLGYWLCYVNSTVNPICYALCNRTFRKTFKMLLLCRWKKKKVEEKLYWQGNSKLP
Protein Tat, sequence (P04608 whole entry): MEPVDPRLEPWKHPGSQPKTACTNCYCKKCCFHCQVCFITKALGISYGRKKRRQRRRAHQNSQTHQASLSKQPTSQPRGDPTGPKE
Caspase-6, sequence (P55212 24-179 limits assumed): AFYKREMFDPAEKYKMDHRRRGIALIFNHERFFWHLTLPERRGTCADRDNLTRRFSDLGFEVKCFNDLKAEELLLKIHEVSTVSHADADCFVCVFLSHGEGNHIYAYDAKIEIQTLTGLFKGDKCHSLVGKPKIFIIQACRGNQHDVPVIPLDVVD
Caspase-6, sequence (P55212 194-293 limits assumed): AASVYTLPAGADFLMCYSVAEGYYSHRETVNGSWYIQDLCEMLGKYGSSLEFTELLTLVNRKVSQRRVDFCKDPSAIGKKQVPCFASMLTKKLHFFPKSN
G-protein coupled receptor 183, sequence (P32249 whole entry): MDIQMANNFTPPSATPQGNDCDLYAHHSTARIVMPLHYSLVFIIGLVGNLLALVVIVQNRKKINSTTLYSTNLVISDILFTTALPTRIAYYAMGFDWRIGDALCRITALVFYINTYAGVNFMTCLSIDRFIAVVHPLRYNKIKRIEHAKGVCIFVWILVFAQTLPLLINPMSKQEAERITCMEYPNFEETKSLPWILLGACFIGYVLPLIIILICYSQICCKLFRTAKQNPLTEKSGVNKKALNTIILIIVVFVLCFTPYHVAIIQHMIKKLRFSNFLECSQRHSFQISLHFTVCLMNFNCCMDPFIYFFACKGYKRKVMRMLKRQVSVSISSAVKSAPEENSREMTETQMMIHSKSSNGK
Kallikrein-7, sequence (P49862 whole entry): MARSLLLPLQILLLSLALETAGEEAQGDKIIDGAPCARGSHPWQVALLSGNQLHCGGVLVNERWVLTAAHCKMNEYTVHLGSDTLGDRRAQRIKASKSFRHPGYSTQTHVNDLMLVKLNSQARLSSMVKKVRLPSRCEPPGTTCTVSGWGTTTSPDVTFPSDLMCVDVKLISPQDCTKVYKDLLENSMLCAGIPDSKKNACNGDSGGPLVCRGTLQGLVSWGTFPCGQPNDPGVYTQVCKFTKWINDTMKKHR
Glucose-6-phosphate 1-dehydrogenase, sequence (P11413 whole entry): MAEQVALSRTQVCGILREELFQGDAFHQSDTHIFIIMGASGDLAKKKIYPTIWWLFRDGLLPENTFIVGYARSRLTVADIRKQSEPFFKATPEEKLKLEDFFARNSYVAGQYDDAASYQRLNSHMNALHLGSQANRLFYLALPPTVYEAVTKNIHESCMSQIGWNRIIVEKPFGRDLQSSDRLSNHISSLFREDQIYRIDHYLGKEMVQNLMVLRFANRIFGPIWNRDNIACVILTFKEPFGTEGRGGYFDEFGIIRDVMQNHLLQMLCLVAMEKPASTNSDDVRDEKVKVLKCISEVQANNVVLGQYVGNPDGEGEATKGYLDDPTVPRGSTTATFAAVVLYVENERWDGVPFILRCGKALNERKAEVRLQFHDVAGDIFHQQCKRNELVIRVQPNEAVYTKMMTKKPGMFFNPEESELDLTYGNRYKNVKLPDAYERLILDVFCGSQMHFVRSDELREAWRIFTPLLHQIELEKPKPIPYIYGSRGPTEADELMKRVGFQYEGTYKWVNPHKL

In the case of Cc1cccn2c(=O)c3cc(C#N)/c(=N/C(=O)c4ccccc4)n(Cc4ccco4)c3nc12, the EC50 (Kallikrein-7) is reported as 7.95 µM (active).
With C[C@@H]1CCCCO[C@H](CN(C)Cc2ccc(C(F)(F)F)cc2)[C@H](C)CN([C@H](C)CO)C(=O)c2cc(NS(=O)(=O)c3ccc(Cl)cc3)ccc2O1 the AC50 (Paired box protein Pax-8) was 5.45 µM (active), the AC50 [1] was 39 µM (active) and the AC50 [2] was 12.7 µM (active). For the same compound, the AC50 [3] was 34.6 µM (active) and the AC50 [4] was 15.9 µM (active).
In the case of COc1ccc(NC(=O)N2CCCCN3[C@H](CO)[C@H](c4ccc(C#Cc5ccccc5)cc4)[C@H]3C2)cc1, the AC50 (Paired box protein Pax-8) is reported as 23.2 µM (active), the AC50 [3] is reported as 46.7 µM (active) and the AC50 [5] is reported as 3.22 µM (active).
In the case of Cc1ccc(OCCN2C(=O)C(=O)c3cc(OC(F)(F)F)ccc32)cc1, the EC50 [6] is reported as 0.52 µM (active).
With OC[C@H]1[C@H](c2ccc(C#CC3CCCC3)cc2)[C@@H]2CN(CCC(F)(F)F)CCCCN12 the AC50 [7] was 16.8 µM (active), the AC50 [8] was 0.848 µM (active) and the AC50 [9] was 10.4 µM (active).
For Cn1ccs/c1=N\C(=O)c1ccc([N+](=O)[O-])o1, the EC50 [10] was < 0.1 µM (active), the EC50 [11] was 24 µM (active) and the AC50 (Caspase-6) was 6.3 µM (active). For the same compound, the EC50 (cells) was 0.03 µM (active).
In the case of CC(C)(C)c1ccc(CN2CCN(C(=O)/C=C/c3ccc(Br)cc3)CC2)cc1, the IC50 [12] is reported as 0.00936 µM (active).
In the case of CCN1/C(=C/C=C/C=C/C=C/c2sc3ccccc3[n+]2CC)Sc2ccccc21, the EC50 (BJ [13]) is reported as 3.21 µM (active), the EC50 (BJ [14]) is reported as 17.8 µM (active) and the EC50 (BJ [15]) is reported as 11.8 µM (inconclusive). For the same compound, the EC50 [16] was 10.6 µM (active), the IC50 [17] was > 80 µM (inactive) and the IC50 (Nonstructural protein 1) was 5.73 µM (active). For the same compound, the IC50 [18] was 19.8 µM (active), the IC50 [19] was 27 µM (active) and the IC50 (Protein Tat) was > 100 µM (active). For the same compound, the CC50 [20] was 1.26 µM (active) and the IC50 [21] was 3.88 µM (active).
With Cc1cc(CC(C)CC(C)(C)C)n(O)c(=O)c1 (stereo unspecified) [PIROCTONE] the IC50 [22] was > 10 µM (inactive) and the IC50 [23] was > 10 µM (inactive).
